Measured values from US9670157B2, “Benzylamine derivatives” (KALVISTA PHARMACEUTICALS LIMITED, priority 2013, dated 2017).

Legend:
[1] = Pharmacokinetics following a single oral dose in rats; type: in vivo; details: rat, nominal 10 mg/kg, male Sprague-Dawley rats, plasma
Experimental: Pharmacokinetic studies of selected examples were performed to assess the pharmacokinetics following a single oral dose in male Sprague-Dawley rats. Typically, either two or three rats were given a single po dose of 5 mL/kg of a nominal 2 mg/mL (10 mg/kg) composition of test compound in either 5% cremophor:5% ethanol:90% phosphate buffered saline or 20% Labrasol:80% water. Following dosing, blood samples were collected over a period of 8 hours. Typical sample times include 5, 15 and 30 minutes then 1, 2, 4, 6 and 8 hours. Following collection, blood samples were centrifuged and the plasma fraction analysed for concentration of test compound by LCMS.

Human plasma kallikrein = Human plasma kallikrein (Homo sapiens (Human), UniProt P03952); assay: Determination of the IC50 for Plasma Kallikrein; type: biochemical; details: 37° C., fluorogenic substrate H-DPro-Phe-Arg-AFC; read-out: IC50 (human PKal)
Chain of Human plasma kallikrein (P03952 391-638): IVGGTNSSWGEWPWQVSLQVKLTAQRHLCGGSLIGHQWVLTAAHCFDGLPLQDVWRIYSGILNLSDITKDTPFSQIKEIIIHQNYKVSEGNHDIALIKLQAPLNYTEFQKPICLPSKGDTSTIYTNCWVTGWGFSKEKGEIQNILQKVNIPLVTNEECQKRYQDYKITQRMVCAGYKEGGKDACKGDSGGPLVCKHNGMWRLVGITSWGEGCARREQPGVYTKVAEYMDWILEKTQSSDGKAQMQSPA
Chain of Human plasma kallikrein (P03952 20-390 partner): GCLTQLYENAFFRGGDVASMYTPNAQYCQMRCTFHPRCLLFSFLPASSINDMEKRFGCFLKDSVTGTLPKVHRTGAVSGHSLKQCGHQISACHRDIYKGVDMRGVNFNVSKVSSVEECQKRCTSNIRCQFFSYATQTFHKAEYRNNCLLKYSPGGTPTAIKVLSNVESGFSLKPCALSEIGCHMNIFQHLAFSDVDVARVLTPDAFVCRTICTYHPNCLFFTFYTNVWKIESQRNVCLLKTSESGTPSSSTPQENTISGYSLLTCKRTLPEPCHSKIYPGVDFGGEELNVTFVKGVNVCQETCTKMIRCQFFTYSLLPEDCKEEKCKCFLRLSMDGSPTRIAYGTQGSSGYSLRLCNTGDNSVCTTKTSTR
Experimental: Human plasma kallikrein (Protogen) was incubated at 37° C. with the fluorogenic substrate H-DPro-Phe-Arg-AFC and various concentrations of the test compound. Residual enzyme activity (initial rate of reaction) was determined by measuring the change in optical absorbance at 410 nm and the IC50 value for the test compound was determined.

Human KLK1 = Human KLK1 (Homo sapiens (Human), UniProt P06870); assay: Determination of the IC50 for KLK1; type: biochemical; details: 37° C., fluorogenic substrate H-DVal-Leu-Arg-AFC
Chain of Human KLK1 (P06870 25-262): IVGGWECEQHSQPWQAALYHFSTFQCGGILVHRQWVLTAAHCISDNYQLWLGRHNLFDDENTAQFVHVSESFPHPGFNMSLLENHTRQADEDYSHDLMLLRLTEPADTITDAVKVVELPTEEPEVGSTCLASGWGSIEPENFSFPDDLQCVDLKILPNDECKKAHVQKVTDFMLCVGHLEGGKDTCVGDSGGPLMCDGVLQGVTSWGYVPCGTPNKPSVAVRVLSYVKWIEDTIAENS
Outline: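 KLK1 inhibition was measured in vitro following standard published methods. Human KLK1 (Callbiochem) was incubated at 37° C. with the fluorogenic substrate H-DVal-Leu-Arg-AFC in the presence of a range of test compound concentrations. Residual enzyme activity, taken as the initial reaction rate, was followed by the change in optical absorbance at 410 nm, and IC50 values were derived.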

thrombin = thrombin (Homo sapiens (Human), UniProt P00734); assay: Determination of Enzyme Selectivity: thrombin; type: biochemical; details: substrate at Km concentration
Experimental: (§1) Human serine protease enzymes plasmin, thrombin, trypsin, Factor Xa and Factor XIIa were assayed for enzymatic activity using an appropriate fluorogenic substrate. Protease activity was measured by monitoring the accumulation of liberated fluorescence from the substrate over 5 minutes. The linear rate of fluorescence increase per minute was expressed as percentage (%) activity. The Km for the cleavage of each substrate was determined by standard transformation of the Michaelis-Menten equation.

Factor XIIa = Factor XIIa (Homo sapiens (Human), UniProt P00748); assay: Determination of Enzyme Selectivity: Factor XIIa; type: biochemical; details: substrate at Km concentration
Chain of Factor XIIa (P00748 373-615): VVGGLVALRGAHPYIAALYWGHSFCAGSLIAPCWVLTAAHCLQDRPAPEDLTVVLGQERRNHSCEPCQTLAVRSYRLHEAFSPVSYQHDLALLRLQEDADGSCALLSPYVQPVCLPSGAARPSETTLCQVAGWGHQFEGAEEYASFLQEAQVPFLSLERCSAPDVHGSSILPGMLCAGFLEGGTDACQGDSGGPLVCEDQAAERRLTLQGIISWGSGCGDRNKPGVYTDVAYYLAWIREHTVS
Experimental: as §1

trypsin = assay: Determination of Enzyme Selectivity: trypsin; type: biochemical, Human; details: substrate at Km concentration
Experimental: as §1

plasmin = plasmin (Homo sapiens (Human), UniProt P00747); assay: Determination of Enzyme Selectivity: plasmin; type: biochemical; details: substrate at Km concentration
Chain of plasmin (P00747 581-810): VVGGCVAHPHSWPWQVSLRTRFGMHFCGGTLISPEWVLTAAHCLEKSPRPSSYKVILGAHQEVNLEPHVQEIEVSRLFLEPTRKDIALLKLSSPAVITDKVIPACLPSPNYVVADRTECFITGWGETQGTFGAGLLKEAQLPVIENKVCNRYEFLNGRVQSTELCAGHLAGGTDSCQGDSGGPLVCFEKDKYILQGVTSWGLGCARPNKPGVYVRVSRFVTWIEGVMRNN
Chain of plasmin (P00747 97-580 partner): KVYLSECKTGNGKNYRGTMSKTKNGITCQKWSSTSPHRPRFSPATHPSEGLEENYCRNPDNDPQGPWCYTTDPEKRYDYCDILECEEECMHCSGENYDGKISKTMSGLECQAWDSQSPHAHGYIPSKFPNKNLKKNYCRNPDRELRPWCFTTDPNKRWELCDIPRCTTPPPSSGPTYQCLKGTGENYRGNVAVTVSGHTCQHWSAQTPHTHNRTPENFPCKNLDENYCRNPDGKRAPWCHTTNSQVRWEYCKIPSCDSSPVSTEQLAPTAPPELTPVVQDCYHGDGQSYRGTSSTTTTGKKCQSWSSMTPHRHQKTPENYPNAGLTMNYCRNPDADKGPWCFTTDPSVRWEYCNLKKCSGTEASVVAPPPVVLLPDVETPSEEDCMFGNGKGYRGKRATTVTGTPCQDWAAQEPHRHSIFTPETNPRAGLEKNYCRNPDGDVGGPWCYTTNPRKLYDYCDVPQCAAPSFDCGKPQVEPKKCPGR
Experimental: as §1

Cmax [1] [ng/mL] | Tmax [1] [h] | IC50 (Human plasma kallikrein) [µM] | IC50 (Human KLK1) [µM] | IC50 (thrombin) [µM] | IC50 (Factor XIIa) [µM] | IC50 (trypsin) [µM] | IC50 (plasmin) [µM] | Structure (SMILES)
228 | 2.58 | 0.135 | > 10 | – | – | – | – | Cc1cc(C(=O)NCc2ccc(CN)c(F)c2)c(C)n1Cc1csc(-c2ccccc2)n1 [Example 45, 2,5-Dimethyl-1-(2-phenyl-thiazol-4-ylmethyl)-1H-pyrrole-3-carboxylic acid 4-aminomethyl-3-fluoro-benzylamide]
81 | 4.67 | 0.063 | > 10 | > 40 | > 10 | > 40 | > 40 | Cc1cc(C(=O)NCc2ccc(CN)cc2)c(C)n1Cc1csc(-c2ccccc2)n1 [Example 1, 2,5-Dimethyl-1-(2-phenyl-thiazol-4-ylmethyl)-1H-pyrrole-3-carboxylic acid 4-aminomethyl-benzylamide]
– | – | 0.002 | 0.301 | – | > 40 | – | – | Cc1ccc2cc(Cn3cc(C(=O)NCc4c(C)cc(CN)cc4C)c(C)n3)ccc2n1 [Example 124, 3-Methyl-1-(2-methyl-quinolin-6-ylmethyl)-1H-pyrazole-4-carboxylic acid 4-aminomethyl-2,6-dimethyl-benzylamide]
– | – | 0.452 | > 10 | > 40 | > 8.51 | 26.6 | 27.2 | NCc1ccc(CNC(=O)c2cn(Cc3csc(-c4ccccc4)n3)nc2C(F)(F)F)cc1 [Example 83, 1-(2-Phenyl-thiazol-4-ylmethyl)-3-trifluoromethyl-1H-pyrazole-4-carboxylic acid 4-aminomethyl-benzylamide]
– | – | – | > 10 | – | > 40 | – | – | Cc1ccc2cc(Cn3ncc(C(=O)NCc4c(C)cc(CN)cc4C)c3C(F)(F)F)ccc2n1 [Example 127, 1-(2-Methyl-quinolin-6-ylmethyl)-5-trifluoromethyl-1H-pyrazole-4-carboxylic acid 4-aminomethyl-2,6-dimethyl-benzylamide]
71 | 4 | 0.196 | > 10 | – | – | – | – | Cc1cc(C(=O)NCc2ccc(CN)nc2)c(C)n1Cc1csc(-c2ccccc2)n1 [Example 43, 2,5-Dimethyl-1-(2-phenyl-thiazol-4-ylmethyl)-1H-pyrrole-3-carboxylic acid (6-aminomethyl-pyridin-3-ylmethyl)-amide]
67 | 5 | 0.004 | 6.31 | – | > 10 | – | – | Cc1cnn(Cc2ccc(Cn3c(C)cc(C(=O)NCc4c(C)cc(CN)cc4C)c3C)cc2)c1 [Example 101, 2,5-Dimethyl-1-[4-(4-methyl-pyrazol-1-ylmethyl)-benzyl]-1H-pyrrole-3-carboxylic acid 4-aminomethyl-2,6-dimethyl-benzylamide]
59 | 5 | 0.015 | > 10 | > 40 | > 10 | > 40 | 24.8 | Cc1cc(CN)ccc1CNC(=O)c1cc(C)n(Cc2csc(-c3ccccc3)n2)c1C [Example 2, 2,5-Dimethyl-1-(2-phenyl-thiazol-4-ylmethyl)-1H-pyrrole-3-carboxylic acid 4-aminomethyl-2-methyl-benzylamide]
171 | 3.5 | 0.17 | > 10 | – | – | – | – | Cc1cc(C(=O)NCc2ccc(CN)cc2)c(C)n1Cc1csc(-c2ccsc2)n1 [Example 37, 2,5-Dimethyl-1-(2-thiophen-3-yl-thiazol-4-ylmethyl)-1H-pyrrole-3-carboxylic acid 4-aminomethyl-benzylamide]
– | – | 0.009 | > 10 | – | > 40 | – | – | Cc1cnn(Cc2ccc(Cn3cc(C(=O)NCc4ccc(CN)c(F)c4C)c(C(F)(F)F)n3)cc2)c1 [Example 119, 1-[4-(4-Methyl-pyrazol-1-ylmethyl)-benzyl]-3-trifluoromethyl-1H-pyrazole-4-carboxylic acid 4-aminomethyl-3-fluoro-2-methyl-benzylamide]
– | – | – | 0.566 | – | > 40 | – | – | Cc1ccc2cc(Cn3cc(C(=O)NCc4c(C)cc(CN)cc4C)c(C(F)(F)F)n3)ccc2n1 [Example 126, 1-(2-Methyl-quinolin-6-ylmethyl)-3-trifluoromethyl-1H-pyrazole-4-carboxylic acid 4-aminomethyl-2,6-dimethyl-benzylamide]
– | – | 0.003 | 0.657 | – | > 40 | – | – | Cc1ccc2cc(Cn3ncc(C(=O)NCc4c(C)cc(CN)cc4C)c3C)ccc2n1 [Example 125, 5-Methyl-1-(2-methyl-quinolin-6-ylmethyl)-1H-pyrazole-4-carboxylic acid 4-aminomethyl-2,6-dimethyl-benzylamide]
– | – | 8.38 | > 10 | > 40 | > 10 | > 40 | > 40 | NCc1ccc(CNC(=O)c2cn(Cc3ccccc3)nc2-c2ccccc2)cc1 [Example 84, 1-Benzyl-3-phenyl-1H-pyrazole-4-carboxylic acid 4-aminomethyl-benzylamide]
– | – | 0.007 | > 10 | – | – | – | – | Cc1cc(C)n(Cc2ccc(Cn3cc(C(=O)NCc4ccc(CN)cc4)cn3)cc2)n1 [Example 86, 1-[4-(3,5-Dimethyl-pyrazol-1-ylmethyl)-benzyl]-1H-pyrazole-4-carboxylic acid 4-aminomethyl-benzylamide]
– | – | 0.934 | 2.66 | – | – | – | – | Cc1ccc2cc(Cn3c(C)cc(C(=O)NCc4c(C)cc(CN)cc4C)c3C)ccc2n1 [Example 128, 2,5-Dimethyl-1-(2-methyl-quinolin-6-ylmethyl)-1H-pyrrole-3-carboxylic acid 4-aminomethyl-2,6-dimethyl-benzylamide]
